# Assay results taken from patent publication US20240150377A1, “MODULATORS OF CYSTIC FIBROSIS TRANSMEMBRANE CONDUCTANCE REGULATOR” (VERTEX PHARMACEUTICALS INCORPORATED, priority 2020, published 2024).
# Like-named read-outs stand apart in the source and are kept apart here.
# Biological target: T1, CFTR (Homo sapiens, UniProt P13569, DEL508-508)
# T1 construct: endogenous in cells; host or cells: primary human bronchial epithelial cells from CF subjects (F508del/MF-HBE), differentiated at air-liquid interface
# Assay: HBE assay: Ussing chamber assay of CFTR-mediated short-circuit currents
# Type: cell-based
# Conditions: for activation at 10 µM: read-out: HBE Activity at 10 μM (%)
# Method in brief: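 CFTR-mediated Isc (μA/cm²) equals the peak response to apical 20 μM forskolin minus the residual after a 20 μM each BPO/GlyH-101/CFTR inhibitor 172 cocktail, recorded in Ussing chambers at Vhold 0 mV, 37 °C, pH 7.4, with 30 μM apical amiloride. Cells were F508del/MF HBE cultures preincubated 18-24 h with corrector (concentration range or 10 μM) plus 1 μM ivacaftor in 20% human serum.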
# [1] = Table 10, read-out: HBE Max activity (%)
# [2] = Table 12, read-out: HBE Max Activity (%)
# [3] = Table 13, read-out: HBE Max Activity (%)
# T1 sequence (P13569 with tags, fused parts or gaps DEL508-508): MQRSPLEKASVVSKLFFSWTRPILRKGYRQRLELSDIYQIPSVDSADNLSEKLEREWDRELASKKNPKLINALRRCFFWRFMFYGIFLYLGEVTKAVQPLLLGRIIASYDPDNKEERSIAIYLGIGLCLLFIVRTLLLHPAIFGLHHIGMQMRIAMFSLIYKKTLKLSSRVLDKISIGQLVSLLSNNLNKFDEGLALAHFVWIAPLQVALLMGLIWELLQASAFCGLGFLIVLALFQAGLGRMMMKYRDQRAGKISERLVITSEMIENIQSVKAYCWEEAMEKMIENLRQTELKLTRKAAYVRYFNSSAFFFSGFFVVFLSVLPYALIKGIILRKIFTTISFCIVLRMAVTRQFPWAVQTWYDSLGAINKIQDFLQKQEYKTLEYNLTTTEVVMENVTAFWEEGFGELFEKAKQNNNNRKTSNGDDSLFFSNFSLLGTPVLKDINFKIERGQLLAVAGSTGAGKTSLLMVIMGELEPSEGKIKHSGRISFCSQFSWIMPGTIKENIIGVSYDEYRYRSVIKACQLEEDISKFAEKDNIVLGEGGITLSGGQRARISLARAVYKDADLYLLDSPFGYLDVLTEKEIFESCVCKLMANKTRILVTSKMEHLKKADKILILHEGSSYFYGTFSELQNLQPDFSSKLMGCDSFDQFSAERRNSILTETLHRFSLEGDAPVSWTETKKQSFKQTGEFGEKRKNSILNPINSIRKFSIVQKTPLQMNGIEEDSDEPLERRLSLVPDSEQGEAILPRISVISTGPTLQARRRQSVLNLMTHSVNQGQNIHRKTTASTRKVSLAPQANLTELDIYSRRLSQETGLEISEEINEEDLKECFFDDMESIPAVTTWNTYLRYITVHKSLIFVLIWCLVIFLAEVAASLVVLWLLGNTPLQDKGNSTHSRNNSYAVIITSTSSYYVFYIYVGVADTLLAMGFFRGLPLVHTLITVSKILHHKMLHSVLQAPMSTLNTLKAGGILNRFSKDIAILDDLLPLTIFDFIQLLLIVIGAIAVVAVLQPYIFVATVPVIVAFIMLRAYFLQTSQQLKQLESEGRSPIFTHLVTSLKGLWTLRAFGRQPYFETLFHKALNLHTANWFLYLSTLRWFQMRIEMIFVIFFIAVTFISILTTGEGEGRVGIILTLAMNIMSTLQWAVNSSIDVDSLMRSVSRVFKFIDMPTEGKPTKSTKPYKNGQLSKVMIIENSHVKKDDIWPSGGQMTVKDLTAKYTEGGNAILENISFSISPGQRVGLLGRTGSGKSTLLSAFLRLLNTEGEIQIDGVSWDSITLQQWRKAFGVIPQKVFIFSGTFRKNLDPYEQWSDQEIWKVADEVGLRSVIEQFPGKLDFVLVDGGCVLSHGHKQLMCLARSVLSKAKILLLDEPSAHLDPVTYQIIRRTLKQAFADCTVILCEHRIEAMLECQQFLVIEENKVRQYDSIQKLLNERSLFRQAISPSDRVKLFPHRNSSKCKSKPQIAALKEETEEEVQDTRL
smiles,measurement,setting,value
Cc1cccc(C)c1-c1cc2nc(n1)NS(=O)(=O)c1cccc(c1)C(=O)N(Cc1ccc(-c3ccccc3)cn1)[C@H](CC(C)(C)C)CO2 [Compound 499],EC50,"Table 10, read-out: HBE EC50",< 1 µM
same,Emax,[1],> 60%
Cc1ccc(CN2C(=O)c3cccc(c3)S(=O)(=O)Nc3nc(cc(-c4c(C)cccc4C)n3)OC[C@H]2CC(C)(C)C)nc1 [Compound 500],EC50,"Table 10, read-out: HBE EC50",< 1 µM
same,Emax,[1],> 60%
COc1ccc(CN2C(=O)c3cccc(c3)S(=O)(=O)Nc3nc(cc(-c4c(C)cccc4C)n3)OC[C@H]2CC(C)(C)C)nc1 [Compound 501],EC50,"Table 10, read-out: HBE EC50",< 1 µM
same,Emax,[1],> 60%
Cc1cccc(C)c1-c1cc2nc(n1)NS(=O)(=O)c1cccc(c1)C(=O)N(Cc1ccc(N3CCCCC3)cn1)[C@H](CC(C)(C)C)CO2 [Compound 502],EC50,"Table 10, read-out: HBE EC50",< 1 µM
same,Emax,[1],> 60%
Cc1cccc(C)c1-c1cc2nc(n1)NS(=O)(=O)c1cccc(c1)C(=O)N(Cc1ccc(N(C)C)cn1)[C@H](CC(C)(C)C)CO2 [Compound 503],EC50,"Table 10, read-out: HBE EC50",< 1 µM
same,Emax,[1],> 60%
COCCN(C)c1ccc(CN2C(=O)c3cccc(c3)S(=O)(=O)Nc3nc(cc(-c4c(C)cccc4C)n3)OC[C@H]2CC(C)(C)C)nc1 [Compound 504],EC50,"Table 10, read-out: HBE EC50",1 to 3 µM
same,Emax,[1],> 60%
Cc1cccc(C)c1-c1cc2nc(n1)NS(=O)(=O)c1cccc(c1)C(=O)N(Cc1cnc(N3CCOCC3)cn1)[C@H](CC(C)(C)C)CO2 [Compound 505],EC50,"Table 10, read-out: HBE EC50",< 1 µM
same,Emax,[1],> 60%
Cc1cccc(C)c1-c1cc2nc(n1)NS(=O)(=O)c1cccc(c1)C(=O)N(Cc1c(F)cc(C3CCOCC3)cc1F)[C@H](CC(C)(C)C)CO2 [Compound 517],activation at 10 µM,Table 13,> 600%
Cc1cccc(C)c1-c1cc2nc(n1)NS(=O)(=O)c1cccc(c1)C(=O)N(Cc1ccc(C3CCOCC3)cc1F)[C@H](CC(C)(C)C)CO2 [Compound 518],activation at 10 µM,Table 13,> 600%
Cc1cc(C2CCOCC2)ccc1CN1C(=O)c2cccc(c2)S(=O)(=O)Nc2nc(cc(-c3c(C)cccc3C)n2)OC[C@H]1CC(C)(C)C [Compound 519],activation at 10 µM,Table 13,> 600%
Cc1cccc(C)c1-c1cc2nc(n1)NS(=O)(=O)c1cccc(c1)C(=O)N(Cc1ncc(C3CCOCC3)cc1F)[C@H](CC(C)(C)C)CO2 [Compound 521],activation at 10 µM,Table 12,> 600%
Cc1cccc(C)c1-c1cc2nc(n1)NS(=O)(=O)c1cccc(c1)C(=O)N(Cc1ncc(N3CCC(C)(C)CC3)cc1F)[C@H](CC(C)(C)C)CO2 [Compound 522],EC50,"Table 12, read-out: HBE EC50",< 1 µM
same,Emax,[2],> 60%
Cc1cccc(C)c1-c1cc2cc(n1)NS(=O)(=O)c1cccc(c1)C(=O)N(Cc1ncc(CC(C)C)cn1)[C@H](CC(C)(C)C)CO2 [Compound 523],activation at 10 µM,Table 12,> 600%
Cc1cccc(C)c1-c1cc2cc(n1)NS(=O)(=O)c1cccc(c1)C(=O)N(Cc1ncc(N3CCC(C)(C)C3)cn1)[C@H](CC(C)(C)C)CO2 [Compound 524],EC50,"Table 12, read-out: HBE EC50",< 1 µM
same,Emax,[2],> 60%
Cc1cccc(C)c1-c1cc2cc(n1)NS(=O)(=O)c1cccc(c1)C(=O)N(Cc1cccc(N3CCC[C@H]3C)n1)[C@H](CC(C)(C)C)CO2 [Compound 526],EC50,"Table 12, read-out: HBE EC50",< 1 µM
same,Emax,[2],> 60%
Cc1cccc(C)c1-c1cc2cc(n1)NS(=O)(=O)c1cccc(c1)C(=O)N(Cc1cncc(N(C)CC(C)(C)C)n1)[C@H](CC(C)(C)C)CO2 [Compound 527],EC50,"Table 12, read-out: HBE EC50",< 1 µM
same,Emax,[2],> 60%
Cc1cccc(C)c1-c1cc2nc(n1)NS(=O)(=O)c1cccc(c1)C(=O)N(Cc1ccc(C(C)(C)C)nc1C)[C@H](CC(C)(C)C)CO2 [Compound 528],Emax,[1],> 60%
Cc1cccc(C)c1-c1cc2nc(n1)NS(=O)(=O)c1cccc(c1)C(=O)N(Cc1ccc(N(C)C)nc1)[C@H](CC(C)(C)C)CO2 [Compound 529],EC50,"Table 10, read-out: HBE EC50",< 1 µM
same,Emax,[1],> 60%
Cc1cccc(C)c1-c1cc2nc(n1)NS(=O)(=O)c1cccc(c1)C(=O)N(Cc1cccc(N(CCO)C(C)C)n1)[C@H](CC(C)(C)C)CO2 [Compound 530],EC50,"Table 13, read-out: HBE EC50",< 1 µM
same,Emax,[3],> 60%
Cc1cccc(C)c1-c1cc2nc(n1)NS(=O)(=O)c1cccc(c1)C(=O)N(Cc1cccc(N3CCC34CCC(C)(C)C4)n1)[C@H](CC(C)(C)C)CO2 (stereo partly shown) [Compound 531],EC50,"Table 13, read-out: HBE EC50",< 1 µM
same,Emax,[3],> 60%
Cc1cccc(C)c1-c1cc2nc(n1)NS(=O)(=O)c1cccc(c1)C(=O)N(Cc1cccc(N3CCC34CCOC4)n1)[C@H](CC(C)(C)C)CO2 (stereo partly shown) [Compound 532],EC50,"Table 13, read-out: HBE EC50",< 1 µM
same,Emax,[3],> 60%
Cc1cccc(C)c1-c1cc2nc(n1)NS(=O)(=O)c1cccc(c1)C(=O)N(Cc1cccc(N3CCC[C@@H]3C#N)n1)[C@H](CC(C)(C)C)CO2 [Compound 533],activation at 10 µM,Table 13,> 600%
Cc1cccc(C)c1-c1cc2nc(n1)NS(=O)(=O)c1cccc(c1)C(=O)N(Cc1cccc(N3CCC[C@H]3C#N)n1)[C@H](CC(C)(C)C)CO2 [Compound 534],activation at 10 µM,Table 13,> 600%
Cc1cccc(C)c1-c1cc2nc(n1)NS(=O)(=O)c1cccc(c1)C(=O)N(Cc1ncc(N3[C@H](C)CC[C@@H]3C)cn1)[C@H](CC(C)(C)C)CO2 [Compound 535],activation at 10 µM,Table 13,> 600%
same,EC50,"Table 13, read-out: HBE EC50",< 1 µM
same,Emax,[3],> 60%
Cc1cccc(C)c1-c1cc2nc(n1)NS(=O)(=O)c1cccc(c1)C(=O)N(Cc1cccc(N3CCC34CCOCC4)n1)[C@H](CC(C)(C)C)CO2 [Compound 536],activation at 10 µM,Table 13,> 600%
same,EC50,"Table 13, read-out: HBE EC50",< 1 µM
same,Emax,[3],> 60%
Cc1cccc(C)c1-c1cc2nc(n1)NS(=O)(=O)c1cccc(c1)C(=O)N(Cc1ncc(N3CCCC3(C)C)cn1)[C@H](CC(C)(C)C)CO2 [Compound 537],EC50,"Table 13, read-out: HBE EC50",< 1 µM
same,Emax,[3],> 60%
Cc1cccc(C)c1-c1cc2nc(n1)NS(=O)(=O)c1cccc(c1)C(=O)N(Cc1nccc(C(C)C(C)C)n1)[C@H](CC(C)(C)C)CO2 (stereo partly shown) [Compound 538],activation at 10 µM,Table 13,> 600%
Cc1cccc(C)c1-c1cc2nc(n1)NS(=O)(=O)c1cccc(c1)C(=O)N(Cc1cccc(N3CCCC3C(N)=O)n1)[C@H](CC(C)(C)C)CO2 (stereo partly shown) [Compound 539],activation at 10 µM,Table 13,> 600%
Cc1cccc(C)c1-c1cc2nc(n1)NS(=O)(=O)c1cccc(c1)C(=O)N(Cc1ncc(N3CC[C@](C)(O)C3)cn1)[C@H](CC(C)(C)C)CO2 [Compound 541],EC50,"Table 12, read-out: HBE EC50",< 1 µM
same,Emax,[2],> 60%
Cc1cccc(C)c1-c1cc2nc(n1)NS(=O)(=O)c1cccc(c1)C(=O)N(Cc1ncc(N3CC[C@@](C)(O)C3)cn1)[C@H](CC(C)(C)C)CO2 [Compound 542],EC50,"Table 12, read-out: HBE EC50",< 1 µM
same,Emax,[2],> 60%
COC1(C)CCN(c2cnc(CN3C(=O)c4cccc(c4)S(=O)(=O)Nc4nc(cc(-c5c(C)cccc5C)n4)OC[C@H]3CC(C)(C)C)nc2)C1 (stereo partly shown) [Compound 543],EC50,"Table 12, read-out: HBE EC50",< 1 µM
same,Emax,[2],> 60%
COc1cccc(C)c1-c1cc2nc(n1)NS(=O)(=O)c1cccc(c1)C(=O)N(Cc1cncc(N(C)CC(C)(C)C)n1)[C@H](CC(C)(C)C)CO2 [Compound 544],activation at 10 µM,Table 12,> 600%
Cc1cccc(C)c1-c1cc2nc(n1)NS(=O)(=O)c1cccc(c1)C(=O)N(Cc1ncc(N3CC4CC3CO4)cn1)[C@H](CC(C)(C)C)CO2 (stereo partly shown) [Compound 545],EC50,"Table 12, read-out: HBE EC50",< 1 µM
same,Emax,[2],> 60%
Cc1cccc(C)c1-c1cc2nc(n1)NS(=O)(=O)c1cccc(c1)C(=O)N(Cc1ncc(N3CC4CC3CO4)cn1)[C@H](CC(C)(C)C)CO2 (stereo partly shown) [Compound 546],EC50,"Table 12, read-out: HBE EC50",< 1 µM
Cc1cccc(C)c1-c1cc2nc(n1)NS(=O)(=O)c1cccc(c1)C(=O)N(Cc1cccc(N3CCCC3C(C)C)n1)[C@H](CC(C)(C)C)CO2 (stereo partly shown) [Compound 547],EC50,"Table 12, read-out: HBE EC50",< 1 µM
same,Emax,[2],> 60%
Cc1cccc(C)c1-c1cc2nc(n1)NS(=O)(=O)c1cccc(c1)C(=O)N(Cc1cccc(N3CCCC3C(C)C)n1)[C@H](CC(C)(C)C)CO2 (stereo partly shown) [Compound 548],EC50,"Table 12, read-out: HBE EC50",< 1 µM
Cc1cccc(C)c1-c1cc2nc(n1)NS(=O)(=O)c1cccc(c1)C(=O)N(Cc1cccc(N3CCCC3C(F)(F)F)n1)[C@H](CC(C)(C)C)CO2 (stereo partly shown) [Compound 549],activation at 10 µM,Table 12,> 600%
Cc1cccc(C)c1-c1cc2nc(n1)NS(=O)(=O)c1cccc(c1)C(=O)N(Cc1cncc(N(C)CC(C)(C)C)n1)[C@H](CC(C)C)CO2 [Compound 551],EC50,"Table 12, read-out: HBE EC50",< 1 µM
same,Emax,[2],> 60%
Cc1cccc(C)c1-c1cc2nc(n1)NS(=O)(=O)c1cccc(c1)C(=O)N(Cc1nccc(N(C)C(C)C)n1)[C@H](CC(C)C)CO2 [Compound 552],activation at 10 µM,Table 12,> 600%
Cc1cccc(C)c1-c1cc2nc(n1)NS(=O)(=O)c1cccc(c1)C(=O)N(Cc1ncc(N3CCC(C)(O)C3)cn1)[C@H](CC(C)(C)C)CO2 (stereo partly shown) [Compound 553],activation at 10 µM,Table 12,> 600%
Cc1cccc(C)c1-c1cc2nc(n1)NS(=O)(=O)c1cccc(c1)C(=O)N(Cc1ncc(N3C4CCC3CC4)cn1)[C@H](CC(C)(C)C)CO2 [Compound 554],EC50,"HBE EC50 (μM), Table 12",< 1 µM
same,Emax,[2],> 60%
CC(C)=C(C)c1ccnc(CN2C(=O)c3cccc(c3)S(=O)(=O)Nc3nc(cc(-c4c(C)cccc4C)n3)OC[C@H]2CC(C)(C)C)n1 [Compound 555],activation at 10 µM,Table 12,> 600%
Cc1cccc(C)c1-c1cc2nc(n1)NS(=O)(=O)c1cccc(c1)C(=O)N(Cc1ncc(OC3CCOCC3)cn1)[C@H](CC(C)(C)C)CO2 [Compound 556],EC50,"Table 12, read-out: HBE EC50",< 1 µM
same,Emax,[2],> 60%
Cc1cccc(C)c1-c1cc2nc(n1)NS(=O)(=O)c1cccc(c1)C(=O)N(Cc1ncc(OC(=O)OC(C)(C)C)cn1)[C@H](CC(C)(C)C)CO2 [Compound 557],activation at 10 µM,Table 12,> 600%
Cc1cccc(C)c1-c1cc2nc(n1)NS(=O)(=O)c1cccc(c1)C(=O)N(Cc1ncc(OC3CCC3)cn1)[C@H](CC(C)(C)C)CO2 [Compound 558],EC50,"Table 12, read-out: HBE EC50",< 1 µM
same,Emax,[2],> 60%
Cc1cccc(C)c1-c1cc2nc(n1)NS(=O)(=O)c1cccc(c1)C(=O)N(Cc1ncc(OCCOC(C)C)cn1)[C@H](CC(C)(C)C)CO2 [Compound 559],EC50,"Table 12, read-out: HBE EC50",< 1 µM
same,Emax,[2],> 60%
